In article PMC9597602, “Metal Complexes as Antifungals? From a Crowd-Sourced Compound Library to the First In Vivo Experiments” (JACS Au, 2022):
Read-outs that look alike come from different tables or passages of the source.

Legend:
[1] = tested on: Candida tropicalis ATCC 750; test: Antifungal MIC assay, extended panel; format: cell-based; conditions: extended panel; 50% inhibition, MIC score 2
[2] = tested on: Candida glabrata ATCC 90030 NCCLS 84; test: Antifungal MIC assay, extended panel; format: cell-based; conditions: extended panel; 50% inhibition, MIC score 2
[3] = tested on: Cryptococcus deuterogattii ATCC 32609 VGII; test: Antifungal MIC assay, extended panel; format: cell-based; conditions: extended panel; 50% inhibition, MIC score 2
[4] = tested on: human ovarian carcinoma cell line A2780; conditions: cited from earlier work
[5] = tested on: Candida albicans ATCC 90028 NCCLS11; test: Antifungal MIC assay; format: cell-based
How it was run: (§1)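 MIC is the lowest concentration at which growth fell by at least 80% (optically clear to slightly hazy, CLSI M27 score 0–1). Cells in YNB at a final 2.5 × 10^3 CFU/mL were incubated with compound for 36 h at 35 °C, unshaken.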

[6] = tested on: Acinetobacter baumannii ATCC 19606 type strain; test: CO-ADD antibacterial MIC assay; format: cell-based; conditions: initial CO-ADD dose-response screening; ≥80% growth inhibition
How it was run: (§2)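 Strains grown overnight in cation-adjusted Mueller Hinton broth at 37 °C, diluted 40-fold and regrown 1.5–3 h to mid-log, then seeded at 5 × 10^5 CFU/mL with compound. After 18 h static incubation at 37 °C, OD600 was read; MIC is the lowest concentration giving ≥80% growth inhibition.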

[7] = tested on: Pseudomonas aeruginosa ATCC 27853 QC control strain; test: CO-ADD antibacterial MIC assay; format: cell-based; conditions: initial CO-ADD dose-response screening; ≥80% growth inhibition
How it was run: as §2

[8] = tested on: methicillin-resistant Staphylococcus aureus ATCC 43300; test: CO-ADD antibacterial MIC assay; format: cell-based; conditions: initial CO-ADD dose-response screening; ≥80% growth inhibition
How it was run: as §2

[9] = tested on: Escherichia coli ATCC 25922 FDA control strain; test: CO-ADD antibacterial MIC assay; format: cell-based; conditions: initial CO-ADD dose-response screening; ≥80% growth inhibition
How it was run: as §2

[10] = tested on: Cryptococcus deuterogattii ATCC 32609 VGII; test: Antifungal MIC assay, extended panel; format: cell-based; conditions: extended panel, second batch; ≥80 or ≥50% inhibition
[11] = tested on: Cryptococcus deuterogattii CBS7750 VGII; Serotype B; test: Antifungal MIC assay, extended panel; format: cell-based; conditions: extended panel, second batch; ≥80 or ≥50% inhibition
How it was run: as §1

[12] = tested on: Candida glabrata ATCC 90030 NCCLS 84; test: Antifungal MIC assay, extended panel; format: cell-based; conditions: extended panel, second batch; ≥80 or ≥50% inhibition
How it was run: as §1

[13] = tested on: Candida tropicalis ATCC 750; test: Antifungal MIC assay, extended panel; format: cell-based; conditions: extended panel, second batch; ≥80 or ≥50% inhibition
How it was run: as §1

[14] = tested on: HEK-293 human embryonic kidney cells ATCC CRL-1573
Experimental: The cells were incubated together with the compounds for 20 h at 37 °C in 5% CO2. […] Tamoxifen (Sigma T5648) was used as internal control on each plate.

[15] = tested on: Cryptococcus deuterogattii CBS7750 VGII; Serotype B; test: Antifungal MIC assay, extended panel; format: cell-based; conditions: extended panel; 50% inhibition, MIC score 2
[16] = tested on: Candida auris CBS12373 KCTC 17810; test: Antifungal MIC assay, extended panel; format: cell-based; conditions: extended panel
How it was run: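 Yeast was grown for 3 days at 30 °C on YPD agar. Five colonies were suspended to 1 × 10^6 to 5 × 10^6 CFU/mL, checked by OD530, diluted in YNB medium, and dispensed onto compound-loaded 384-well NBS plates at 2.5 × 10^3 CFU/mL in 50 μL. Plates were covered and incubated without shaking at 35 °C for 36 h to determine MIC.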

[17] = tested on: Candida auris CBS10913 JCM 15448; test: Antifungal MIC assay, extended panel; format: cell-based; conditions: extended panel
How it was run: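 Yeast strains were grown on YPD agar at 30 °C for 3 days. Five colonies were suspended to 1 × 10^6 to 5 × 10^6 CFU/mL (by OD530), diluted in YNB medium, and dispensed into compound-containing 384-well NBS plates to 2.5 × 10^3 CFU/mL in 50 μL. Covered plates were held at 35 °C for 36 h without shaking, and MIC was determined by broth dilution.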

[18] = tested on: Cryptococcus neoformans H99 ATCC 208821 type strain; test: Antifungal MIC assay; format: cell-based
How it was run: as §1

human red blood cells = format: cell-based
How it was run: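 Washed human erythrocytes at 0.5 × 10^8 cells/mL incubated with compound, then centrifuged. Haemolysis read as supernatant OD405, normalised to untreated cells (0%) and 1% Triton X-100 (100%), with melittin as internal plate control.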

[19] = extended panel, second batch, ≥80 or ≥50% inhibition
[20] = extended panel, 50% inhibition, MIC score 2
[21] = initial CO-ADD dose-response screening, ≥80% growth inhibition

## Cc1c(C)c(C)[c-](C)c1C.Cc1c(C)c(C)[c-](C)c1C.[Cl-].[Cl-].[Cl-].[Cl-].[Rh+3].[Rh+3] [Rh1]
[1]
  MIC50 Candida tropicalis ATCC 750: 0.391 to 0.781 µM
[2]
  MIC50 Candida glabrata ATCC 90030: 0.391 to 6.25 µM
[3]
  MIC50 Cryptococcus deuterogattii ATCC 32609: 0.78 to 1.56 µM
[4]
  IC50: 7.3 ± 1.5 µM
[5]; [19]
  MIC Candida albicans ATCC 90028: 0.39 to 1.56 µM
[5]; [20]
  MIC50 Candida albicans ATCC 90028: 0.391 to 1.56 µM
[5]; [21]
  MIC Ca: 4 µg/mL
[6]
  MIC Ab: >32 µg/mL
[7]
  MIC Pa: >32 µg/mL
[8]
  MIC MRSA (Sa): >32 µg/mL
[9]
  MIC Ec: >32 µg/mL
[10]
  MIC Cryptococcus deuterogattii ATCC 32609: 0.781 to 1.56 µM
[11]
  MIC: 0.391 µM
[12]
  MIC: 6.25 µM
[13]
  MIC Candida tropicalis ATCC 750: 0.391 to 0.781 µM
[14]; initial CO-ADD screening, 20 h
  HEK CC50: >32 µg/mL
[14]; read-out: HEK293 CC50, ranges obtained upon retesting, new batch
  CC50: > 200 µM
[14]; retest
  cytotoxicity: none up to stated concentration: > 200 µM
[15]
  MIC50 Cryptococcus deuterogattii CBS7750: 0.391 µM
[16]; second batch, ≥80 or ≥50% inhibition, read-out: MIC* Candida auris CBS12373
  MIC: 0.78 µM
[16]; 50% inhibition, MIC score 2
  MIC50 Candida auris CBS12373: 0.391 to 0.781 µM
[17]; second batch, ≥80 or ≥50% inhibition
  MIC Candida auris CBS10913: 0.781 to 1.56 µM
[17]; 50% inhibition, MIC score 2
  MIC50 Candida auris CBS10913: 0.781 to 1.56 µM
[18]; [19]
  MIC Cryptococcus neoformans ATCC 208821: 0.195 to 0.391 µM
[18]; [20]
  MIC50 Cryptococcus neoformans ATCC 208821: 0.195 to 0.391 µM
[18]; [21]
  MIC Cn: 2 µg/mL
Human red blood cells; initial CO-ADD screening, 1 h, 10% hemolysis
  RBC HC10: >32 µg/mL
Human red blood cells; ranges obtained upon retesting, new batch
  RBC HC10: 0.4 to 3 µM
